According to patent US5631401A, “Inhibitors of protein farnesyltransferase and squalene synthase” (Abbott Laboratories, priority 1995, dated 1997):

Molecular target: T1, Rat brain protein farnesyltransferase (Rattus norvegicus, UniProt Q02293+Q04631)
T1 construct: The enzyme was purified according to Reiss, Y., et al., Cell, 62: 81-88 (1990), utilizing steps one through three; from tissue; host or cells: rat brain
Experiment: In vitro inhibition of protein farnesyltransferase (biotin-lamin substrate, scintillation proximity assay)
Format: biochemical
Conditions: for inhibition at 10 µM: compared to uninhibited control; for inhibition at 1 µM: 1 μM (footnote *), read-out: % Inhibition at 1 μM (protein farnesyltransferase, values marked *)
Method: In vitro inhibition of protein farnesyltransferase may be measured by the following procedure. (Procedures for determination of the inhibition of farnesylation of the oncogene protein Ras are described by Goldstein, et al., J. Biol. Chem., 266: 15575-15578 (1991) and by Singh in U.S. Pat. No. 5,245,061 both of which are incorporated herein by reference.)
Rat brain protein farnesyltransferase activity was measured using the biotin-lamin substrate (which is known to undergo farnesylation in a manner analogous to Ras protein) and radioactive farnesyl diphosphate provided by Amersham Life Science in their commercial scintillation proximity assay kit for the determination of farnesyltransferase. The enzyme was purified according to Reiss, Y., et al., Cell, 62: 81-88 (1990), utilizing steps one through three. The specific activity of the enzyme was approximately 10 nmol substrate farnesylated/mg enzyme/hour. […]

## CCCN(Cc1ccc(Oc2ccccc2)cc1)C(=O)[C@H]1[C@H](C(=O)O)[C@H](C(=O)N(C)CC/C=C(\C)CCC=C(C)C)[C@H]1C(=O)O (relative stereo) [Example 41, (1α,2β,3β,4α)-1-[N-Propyl-N-(4-phenoxybenzyl)aminocarbonyl]-3-[N-methyl-N-(homogeranyl)aminocarbonyl]cyclobutane-2,4-dicarboxylic acid]
  inhibition at 10 µM: 63%

## O=C(O)[C@H]1[C@H](C(=O)N2CCCC(c3ccccc3)C2)[C@H](C(=O)O)[C@H]1C(=O)N1CCCC(c2ccccc2)C1 (relative stereo) [Example 83, (1α,2β,3β,4α)-1,3-Di [(3-phenylpiperidin-1-yl)carbonyl]cyclobutane-2,4-dicarboxylic acid]
  inhibition at 10 µM: 37%

## O=C(O)[C@H]1[C@H](C(=O)OCc2ccc(Oc3ccccc3)cc2)[C@H](C(=O)O)[C@H]1C(=O)OCc1ccc(Oc2ccccc2)cc1 [Example 36, (1α,2β,3β,4α)-1,3-Di[4-phenoxybenzyloxycarbonyl]cyclobutane-2,4-dicarboxylic acid]
  inhibition at 10 µM: 24%

## CCCN(Cc1ccc(OC2CCCCC2)cc1)C(=O)[C@H]1[C@H](C(=O)O)[C@H](C(=O)N(CCC)Cc2ccc(OC3CCCCC3)cc2)[C@H]1C(=O)O [Example 37, (1α,2β,3β,4α)-1,3-Di[N-propyl-N-(4-cyclohexyloxybenzyl)aminocarbonyl]cyclobutane-2,4-dicarboxylic acid]
  inhibition at 10 µM: 22%

## CCCN(CCCCCc1ccccc1)C(=O)[C@H]1[C@H](C(=O)O)[C@H](C(=O)N(CCC)CCCCCc2ccccc2)[C@H]1C(=O)O [Example 38, (1α,2β,3β,4α)-1,3-Di[N-propyl-N-(5-phenylpentyl)aminocarbonyl]cyclobutane-2,4-dicarboxylic acid]
  inhibition at 10 µM: 85%

## CCCN(CCCCOc1ccccc1)C(=O)[C@H]1[C@H](C(=O)O)[C@H](C(=O)N(CCC)CCCCOc2ccccc2)[C@H]1C(=O)O [Example 39, (1α,2β,3β,4α)-1,3-Di[N-propyl-N-(4-phenoxybutyl)aminocarbonyl]cyclobutane-2,4-dicarboxylic acid]
  inhibition at 10 µM: 66%

## O=C(O)CN(Cc1ccc(Oc2ccccc2)cc1)C(=O)C1C(C(=O)O)C(C(=O)N(CC(=O)O)Cc2ccc(Oc3ccccc3)cc2)C1C(=O)O (stereo not drawn) [Example 43, (1α,2β,3β,4α)-1,3-Di[N-carboxymethyl-N-(4-phenoxybenzyl)aminocarbonyl]cyclobutane-2,4-dicarboxylic acid]
  inhibition at 1 µM: 54%

## CCCN(Cc1ccc(Oc2ccccc2)cc1)C(=O)C1C(C(=O)O)C(C(=O)N(CCC)Cc2ccc(Oc3ccccc3)cc2)C1C(=O)O (stereo not drawn) [Example 47, (1α,2β,3β,4α)-1,3-Di[N-propyl-N-(4-phenoxybenzyl)aminocarbonyl]cyclobutane-2,4-dicarboxylic acid]
  inhibition at 10 µM: 50%

## CCCN(Cc1ccc(Oc2ccc3c(c2)OCO3)cc1)C(=O)C1C(C(=O)O)C(C(=O)N(CCC)Cc2ccc(Oc3ccc4c(c3)OCO4)cc2)C1C(=O)O (stereo not drawn) [Example 48, (1α,2β,3β,4α)-1,3-Di[N-propyl-N-(4-(3,4-methylenedioxyphenoxy)benzyl)aminocarbonyl]cyclobutane-2,4-dicarboxylic acid]
  inhibition at 10 µM: 61%

## COc1ccc2c(c1)CCN(C(=O)C1C(C(=O)O)C(C(=O)N3CCc4cc(OC)ccc4C3)C1C(=O)O)C2 (stereo not drawn) [Example 49, (1α,2β,3β,4α)-1,3-Di[6-methoxy-1,2,3,4-tetrahydroisoquinolin-2-ylcarbonyl]cyclobutane-2,4-dicarboxylic acid]
  inhibition at 10 µM: 23%

## CCCN(Cc1ccc(Oc2ccccc2C)cc1)C(=O)C1C(C(=O)O)C(C(=O)N(CCC)Cc2ccc(Oc3ccccc3C)cc2)C1C(=O)O (stereo not drawn) [Example 50, (1α,2β,3β,4α)-1,3-Di[N-propyl-N-(4-(2-methylphenoxy)benzyl)aminocarbonyl]cyclobutane-2,4-dicarboxylic acid]
  inhibition at 10 µM: 35%

## CCCN(Cc1ccc(Oc2ccccc2)o1)C(=O)C1C(C(=O)O)C(C(=O)N(CCC)Cc2ccc(Oc3ccccc3)o2)C1C(=O)O (stereo not drawn) [Example 52, (1α,2β,3β,4α)-1,3-Di[N-propyl-N-(5-phenoxyfurfuryl)aminocarbonyl]cyclobutane-2,4-dicarboxylic acid]
  inhibition at 10 µM: 51%

## CCCN(Cc1ccc(Oc2nccs2)cc1)C(=O)C1C(C(=O)O)C(C(=O)N(CCC)Cc2ccc(Oc3nccs3)cc2)C1C(=O)O (stereo not drawn) [Example 55]
  inhibition at 1 µM: 22%

## CCCN(Cc1ccc(Cn2cccc2)cc1)C(=O)C1C(C(=O)O)C(C(=O)N(CCC)Cc2ccc(Cn3cccc3)cc2)C1C(=O)O (stereo not drawn) [Example 56, (1α,2β,3β,4α)-1,3-Di[N-propyl-N-(4-(pyrrol-1-ylmethyl)benzyl)aminocarbonyl]cyclobutane-2,4-dicarboxylic acid]
  inhibition at 10 µM: 78%

## CCCN(CC=C=Cc1ccccc1)C(=O)C1C(C(=O)O)C(C(=O)N(CC=C=Cc2ccccc2)CCC)C1C(=O)O (stereo not drawn) [Example 60, (1α,2β,3β,4α)-1,3-Di[N-propyl-N-(4-phenyl-2,3-butadien-1-yl)aminocarbonyl]cyclobutane-2,4-dicarboxylic acid]
  inhibition at 1 µM: 23%

## CCCN(CC#CCc1ccccc1)C(=O)[C@H]1[C@H](C(=O)O)[C@H](C(=O)N(CC#CCc2ccccc2)CCC)[C@H]1C(=O)O [Example 61, (1α,2β,3β,4α)-1,3-Di{N-propyl-N-(4-phenylbut-2-yn-1-yl)aminocarbonyl}cyclobutane-2,4-dicarboxylic acid]
  inhibition at 10 µM: 73%

## CCCN(Cc1ccc(Nc2ccccc2)cc1)C(=O)C1C(C(=O)O)C(C(=O)N(CCC)Cc2ccc(Nc3ccccc3)cc2)C1C(=O)O (stereo not drawn) [Example 62, (1α,2β,3β,4α)-1,3-Di[N-propyl-N-(4-phenylaminobenzyl)aminocarbonyl]cyclobutane-2,4-dicarboxylic acid]
  inhibition at 10 µM: 69%

## CCCN(Cc1ccc(COc2ccccc2)cc1)C(=O)C1C(C(=O)O)C(C(=O)N(CCC)Cc2ccc(COc3ccccc3)cc2)C1C(=O)O (stereo not drawn) [Example 65, (1α,2β,3β,4α)-1,3-Di[N-propyl-N-(4-phenoxymethylbenzyl)aminocarbonyl]-2,4-cyclobutanedicarboxylic acid]
  inhibition at 1 µM: 52%

## CCCN(C(=O)C1C(C(=O)O)C(C(=O)N(CCC)c2ccc(Oc3ccccc3)cc2)C1C(=O)O)c1ccc(Oc2ccccc2)cc1 (stereo not drawn) [Example 66, (1α,2β,3β,4α)-1,3-Di[N-propyl-N-(4-phenoxyphenyl)aminocarbonyl]cyclobutane-2,4-dicarboxylic acid]
  inhibition at 10 µM: 88%

## O=C(O)[C@H]1[C@H](C(=O)N(CCO)Cc2ccc(Oc3ccccc3)cc2)[C@H](C(=O)O)[C@H]1C(=O)N(CCO)Cc1ccc(Oc2ccccc2)cc1 [Example 74, (1α,2β,3β,4α)-1,3-Di[N-(2-hydroxyethyl)-N-(4-phenoxybenzyl)aminocarbonyl]cyclobutane-2,4-dicarboxylic acid]
  inhibition at 1 µM: 22%

## O=C(O)[C@H]1[C@H](C(=O)N(Cc2ccc(Oc3ccccc3)cc2)Cc2ccc3ccccc3c2)[C@H](C(=O)O)[C@H]1C(=O)N(Cc1ccc(Oc2ccccc2)cc1)Cc1ccc2ccccc2c1 [Example 81, (1α,2β,3β,4α)-1,3-Di [N-(4-phenoxybenzyl)-N-(2-methylnaphthyl)aminocarbonyl]cyclobutane-2,4-dicarboxylic acid]
  inhibition at 1 µM: 62%

## CCCN(C[C@H](C)CCCc1ccccc1)C(=O)[C@H]1[C@H](C(=O)O)[C@H](C(=O)N(CCC)C[C@H](C)CCCc2ccccc2)[C@H]1C(=O)O [Example 82, (1α,2β,3β,4α)-1,3-Di [N-((2R)-2-methyl-5-phenylpentyl)-N-(n-propyl)aminocarbonyl]cyclobutane-2,4-dicarboxylic acid]
  inhibition at 1 µM: 21%

## CC(=O)OC(CCCN(Cc1ccccc1)C(=O)C1C(C(=O)O)C(C(=O)N(CCCC(OC(C)=O)C(C)Cc2ccccc2)Cc2ccccc2)C1C(=O)O)C(C)Cc1ccccc1 (stereo not drawn) [Example 84, (1α,2β,3β,4α)-1,3-Di [N-benzyl-N-{syn-(4-acetoxy-5-methyl) -6-phenylhexyl}aminocarbonyl]cyclobutane-2,4-dicarboxylic acid]
  inhibition at 1 µM: 93%

## C[C@H](CCCc1ccccc1)CN(Cc1ccccc1)C(=O)[C@H]1[C@H](C(=O)O)[C@H](C(=O)N(Cc2ccccc2)C[C@H](C)CCCc2ccccc2)[C@H]1C(=O)O [Example 85, (1α,2β,3β,4α)-1,3-Di[N-benzyl-N-((2R)-5-phenyl-2-methylpentyl)aminocarbonyl]cyclobutane-2,4-dicarboxylic acid]
  inhibition at 1 µM: 58%

## C[C@H](C/C=C/c1ccccc1)CN(Cc1ccccc1)C(=O)[C@H]1[C@H](C(=O)O)[C@H](C(=O)N(Cc2ccccc2)C[C@H](C)C/C=C/c2ccccc2)[C@H]1C(=O)O [Example 86, (1α,2β,3β,4α)-1,3-Di [N-benzyl-N-{(E)-(2R)-2-methyl-5-phenyl-4-pentenyl}aminocarbonyl]cyclobutane-2,4-dicarboxylic acid]
  inhibition at 1 µM: 61%

## C[C@H](c1ccccc1)N(Cc1ccc(Oc2ccccc2)cc1)C(=O)[C@H]1[C@H](C(=O)O)[C@H](C(=O)N(Cc2ccc(Oc3ccccc3)cc2)[C@H](C)c2ccccc2)[C@H]1C(=O)O [Example 90]
  inhibition at 1 µM: 66%

## O=C(O)[C@H]1[C@H](C(=O)N2CC=C(c3ccc(Oc4ccccc4)cc3)CC2)[C@H](C(=O)O)[C@H]1C(=O)N1CC=C(c2ccc(Oc3ccccc3)cc2)CC1 [Example 92, (1α,2α,3β,4β)-1,3-Di[4-(4-phenoxyphenyl)-1,2,3,6-tetrahydropyridin-1-ylcarbonyl]cyclobutane-2,4-dicarboxylic acid]
  inhibition at 1 µM: 45%
